Test results: patent publication US8722704B2, “Modulators of ATP-binding cassette-transporters” (Vertex Pharmaceuticals Incorporated, priority 2007, dated 2014)

What follows are molecules tested against T1, ΔF508-CFTR (Homo sapiens, UniProt P13569, DEL508-508) (assay: Assays for detecting and measuring ΔF508-CFTR correction properties (membrane potential optical assay; Table 3 does not say which assay)). Settings: IC50/EC50 bins; NIH3T3 mouse fibroblasts stably expressing ΔF508-CFTR; read-out: Binned EC50.
T1 construct: expressed in transfected cells
T1 sequence (P13569 with tags, fused parts or gaps DEL508-508): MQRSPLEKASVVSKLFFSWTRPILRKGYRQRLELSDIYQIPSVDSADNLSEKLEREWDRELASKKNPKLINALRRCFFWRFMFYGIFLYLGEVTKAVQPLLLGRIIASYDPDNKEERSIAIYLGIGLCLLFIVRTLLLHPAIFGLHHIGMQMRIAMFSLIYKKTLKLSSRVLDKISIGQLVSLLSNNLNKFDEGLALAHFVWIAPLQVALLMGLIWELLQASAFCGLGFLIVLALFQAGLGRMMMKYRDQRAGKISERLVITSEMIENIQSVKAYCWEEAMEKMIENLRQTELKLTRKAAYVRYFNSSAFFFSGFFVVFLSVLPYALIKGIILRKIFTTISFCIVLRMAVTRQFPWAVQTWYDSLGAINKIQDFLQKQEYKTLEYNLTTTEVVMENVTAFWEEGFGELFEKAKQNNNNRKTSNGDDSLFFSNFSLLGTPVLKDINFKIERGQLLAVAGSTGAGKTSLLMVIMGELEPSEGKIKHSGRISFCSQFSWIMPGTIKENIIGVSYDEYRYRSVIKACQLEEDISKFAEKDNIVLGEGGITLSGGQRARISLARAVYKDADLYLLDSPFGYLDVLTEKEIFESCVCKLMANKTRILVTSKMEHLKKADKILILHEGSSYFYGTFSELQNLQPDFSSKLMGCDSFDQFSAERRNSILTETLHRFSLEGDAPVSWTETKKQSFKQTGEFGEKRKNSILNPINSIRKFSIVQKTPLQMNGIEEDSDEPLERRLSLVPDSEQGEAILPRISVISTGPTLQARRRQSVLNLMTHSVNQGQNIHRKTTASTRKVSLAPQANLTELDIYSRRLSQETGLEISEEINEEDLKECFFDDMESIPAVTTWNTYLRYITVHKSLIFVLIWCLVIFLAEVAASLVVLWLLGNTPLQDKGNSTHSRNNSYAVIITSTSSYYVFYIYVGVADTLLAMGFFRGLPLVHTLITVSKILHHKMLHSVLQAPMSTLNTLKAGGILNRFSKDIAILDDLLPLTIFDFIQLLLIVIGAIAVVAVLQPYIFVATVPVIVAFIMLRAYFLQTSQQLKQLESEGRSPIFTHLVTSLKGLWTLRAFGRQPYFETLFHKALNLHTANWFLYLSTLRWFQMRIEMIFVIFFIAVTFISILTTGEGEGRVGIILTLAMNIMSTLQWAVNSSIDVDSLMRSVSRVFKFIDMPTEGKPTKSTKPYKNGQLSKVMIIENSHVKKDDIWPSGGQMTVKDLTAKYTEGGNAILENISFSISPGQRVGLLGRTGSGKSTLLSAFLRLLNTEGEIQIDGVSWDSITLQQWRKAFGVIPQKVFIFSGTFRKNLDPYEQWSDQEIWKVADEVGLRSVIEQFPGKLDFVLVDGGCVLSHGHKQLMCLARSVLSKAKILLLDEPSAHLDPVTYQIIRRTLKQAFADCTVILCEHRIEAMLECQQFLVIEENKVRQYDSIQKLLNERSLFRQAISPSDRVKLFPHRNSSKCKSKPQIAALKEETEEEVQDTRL
Type: cell-based
Text: The optical membrane potential assay utilized voltage-sensitive FRET sensors described by Gonzalez and Tsien (See Gonzalez, J. E. and R. Y. Tsien (1995) “Voltage sensing by fluorescence resonance energy transfer in single cells” Biophys J 69(4): 1272-80, and Gonzalez, J. E. and R. Y. Tsien (1997) “Improved indicators of cell membrane potential that use fluorescence resonance energy transfer” Chem Biol 4(4): 269-77) in combination with instrumentation for measuring fluorescence changes such as the Voltage/Ion Probe Reader (VIPR) (See Gonzalez, J. E., K. Oades, et al. (1999) “Cell-based assays and instrumentation for screening ion-channel targets” Drug Discov Today 4(9): 431-439).
These voltage sensitive assays are based on the change in fluorescence resonant energy transfer (FRET) between the membrane-soluble, voltage-sensitive dye, DiSBAC2(3), and a fluorescent phospholipid, CC2-DMPE, which is attached to the outer leaflet of the plasma membrane and acts as a FRET donor. Changes in membrane potential (Vm) cause the negatively charged DiSBAC2(3) to redistribute across the plasma membrane and the amount of energy transfer from CC2-DMPE changes accordingly. The changes in fluorescence emission were monitored using VIPR™ II, which is an integrated liquid handler and fluorescent detector designed to conduct cell-based screens in 96- or 384-well microtiter plates.
To identify small molecules that correct the trafficking defect associated with ΔF508-CFTR; a single-addition HTS assay format was developed. The cells were incubated in serum-free medium for 16 hrs at 37° C. in the presence or absence (negative control) of test compound. As a positive control, cells plated in 384-well plates were incubated for 16 hrs at 27° C. to “temperature-correct” ΔF508-CFTR. The cells were subsequently rinsed 3× with Krebs Ringers solution and loaded with the voltage-sensitive dyes. To activate ΔF508-CFTR, 10 μM forskolin and the CFTR potentiator, genistein (20 μM), were added along with Cl^−-free medium to each well. The addition of Cl^−-free medium promoted Cl^− efflux in response to ΔF508-CFTR activation and the resulting membrane depolarization was optically monitored using the FRET-based voltage-sensor dyes. […]
3. Solutions • Bath Solution #1: (in mM) NaCl 160, KCl 4.5, CaCl2 2, MgCl2 1, HEPES 10, pH 7.4 with NaOH. • Chloride-free bath solution: Chloride salts in Bath Solution #1 are substituted with gluconate salts. • CC2-DMPE: Prepared as a 10 mM stock solution in DMSO and stored at −20° C. • DiSBAC2(3): Prepared as a 10 mM stock in DMSO and stored at −20° C.
NIH3T3 mouse fibroblasts stably expressing ΔF508-CFTR are used for optical measurements of membrane potential. The cells are maintained at 37° C. in 5% CO2 and 90% humidity in Dulbecco's modified Eagle's medium supplemented with 2 mM glutamine, 10% fetal bovine serum, 1×NEAA, β-ME, 1×pen/strep, and 25 mM HEPES in 175 cm^2 culture flasks. For all optical assays, the cells were seeded at 30,000/well in 384-well matrigel-coated plates and cultured for 2 hrs at 37° C. before culturing at 27° C. for 24 hrs for the potentiator assay. For the correction assays, the cells are cultured at 27° C. or 37° C. with and without compounds for 16-24 hours.
Molecule `CS(=O)(=O)NCc1ccc(-c2nc(NC(=O)C3(c4ccc5c(c4)OC(F)(F)O5)CC3)cc3ccccc23)cc1` [Compound 1, 1-(2,2-Difluorobenzo[d][1,3]dioxol-5-yl)-N-(1-(4-(methylsulfonamidomethyl)phenyl)isoquinolin-3-yl)cyclopropanecarboxamide] has an EC50 greater than 5000 nM. `O=C(Nc1cc2ccccc2c(-c2ccc3[nH]ncc3c2)n1)C1(c2ccc3c(c2)OC(F)(F)O3)CC1` [Compound 2, N-(1-(1H-Indazol-5-yl)isoquinolin-3-yl)-1-(2,2-difluorobenzo[d][1,3]dioxol-5-yl)cyclopropanecarboxamide] showed an EC50 of no more than 2000 nM. Work on `CC(=O)NCc1ccc(-c2nc(NC(=O)C3(c4ccc5c(c4)OC(F)(F)O5)CC3)cc3ccccc23)cc1` [Compound 3, N-(1-(4-(Acetamidomethyl)phenyl)isoquinolin-3-yl)-1-(2,2-difluorobenzo[d][1,3]dioxol-5-yl)cyclopropanecarboxamide] yielded an EC50 of no more than 2000 nM. `O=C(Nc1cc2ccccc2c(-c2ccccc2)n1)C1(c2ccc3c(c2)OC(F)(F)O3)CC1` [Compound 4, 1-(2,2-difluorobenzo[d][1,3]dioxol-5-yl)-N-(1-phenylisoquinolin-3-yl)cyclopropanecarboxamide] showed an EC50 of no more than 2000 nM. For `O=C(O)c1ccc(-c2nc(NC(=O)C3(c4ccc5c(c4)OC(F)(F)O5)CC3)cc3ccccc23)cc1` [Compound 5], the EC50 was no more than 2000 nM. Work on `NC(=O)c1ccc(-c2nc(NC(=O)C3(c4ccc5c(c4)OC(F)(F)O5)CC3)cc3ccccc23)cc1` [Compound 6, 4-(3-(1-(2,2-Difluorobenzo[d][1,3]dioxol-5-yl)cyclopropanecarboxamido)isoquinolin-1-yl)benzamide] yielded an EC50 of no more than 2000 nM. Work on `Cc1cc2cc(-c3nc(NC(=O)C4(c5ccc6c(c5)OC(F)(F)O6)CC4)cc4ccccc34)ccc2[nH]1` [Compound 7, 1-(2,2-difluorobenzo[d][1,3]dioxol-5-yl)-N-(1-(2-methyl-1H-indol-5-yl)isoquinolin-3-yl)cyclopropanecarboxamide] yielded an EC50 of no more than 2000 nM. With `O=C(O)c1cccc(-c2nc(NC(=O)C3(c4ccc5c(c4)OC(F)(F)O5)CC3)cc3ccccc23)c1` [Compound 8] the EC50 was no more than 2000 nM. With `CS(=O)(=O)NCc1cccc(-c2nc(NC(=O)C3(c4ccc5c(c4)OC(F)(F)O5)CC3)cc3ccccc23)c1` [Compound 9, 1-(2,2-Difluorobenzo[d][1,3]dioxol-5-yl)-N-(1-(3-(methylsulfonamidomethyl)phenyl)isoquinolin-3-yl)cyclopropanecarboxamide] the EC50 was no more than 2000 nM. `CC(=O)NCc1cccc(-c2nc(NC(=O)C3(c4ccc5c(c4)OC(F)(F)O5)CC3)cc3ccccc23)c1` [Compound 10, N-(1-(3-(Acetamidomethyl)phenyl)isoquinolin-3-yl)-1-(2,2-difluorobenzo[d][1,3]dioxol-5-yl)cyclopropanecarboxamide] showed an EC50 of no more than 2000 nM. `NS(=O)(=O)c1ccc(-c2nc(NC(=O)C3(c4ccc5c(c4)OC(F)(F)O5)CC3)cc3ccccc23)cc1` [Compound 11, 1-(2,2-Difluorobenzo[d][1,3]dioxol-5-yl)-N-(1-(4-sulfamoylphenyl)isoquinolin-3-yl)cyclopropanecarboxamide] showed an EC50 of no more than 2000 nM. `COc1ccc(C2(C(=O)Nc3cc4ccccc4c(N4CCN(C)CC4)n3)CC2)cc1` [Compound 12] was tested, and the EC50 was no more than 2000 nM. Work on `NS(=O)(=O)c1cccc(-c2nc(NC(=O)C3(c4ccc5c(c4)OC(F)(F)O5)CC3)cc3ccccc23)c1` [Compound 13, 1-(2,2-Difluorobenzo[d][1,3]dioxol-5-yl)-N-(1-(3-sulfamoylphenyl)isoquinolin-3-yl)cyclopropanecarboxamide] yielded an EC50 of no more than 2000 nM. Molecule `COc1ccc(C2(C(=O)Nc3cc4ccccc4c(N4CCN(c5ccccc5)C(=O)C4)n3)CC2)cc1` [Compound 14, 1-(4-methoxyphenyl)-N-(1-(3-oxo-4-phenylpiperazin-1-yl)isoquinolin-3-yl)cyclopropanecarboxamide] has an EC50 of no more than 2000 nM. Molecule `O=C1NCc2ccc(-c3nc(NC(=O)C4(c5ccc6c(c5)OC(F)(F)O6)CC4)cc4ccccc34)cc21` [Compound 15, 1-(2,2-Difluorobenzo[d][1,3]dioxol-5-yl)-N-(1-(3-oxoisoindolin-5-yl)isoquinolin-3-yl)cyclopropanecarboxamide] has an EC50 of no more than 2000 nM. With `O=C(Nc1cc2ccccc2c(-c2ccc3[nH]ccc3c2)n1)C1(c2ccc3c(c2)OC(F)(F)O3)CC1` [Compound 16, N-(1-(1H-Indol-5-yl)isoquinolin-3-yl)-1-(2,2-difluorobenzo[d][1,3]dioxol-5-yl)cyclopropanecarboxamide] the EC50 was no more than 2000 nM. In the case of `O=C(Nc1cc2ccccc2c(-c2ccc(=O)[nH]c2)n1)C1(c2ccc3c(c2)OC(F)(F)O3)CC1` [Compound 17, 1-(2,2-Difluorobenzo[d][1,3]dioxol-5-yl)-N-(1-(6-oxo-1,6-dihydropyridin-3-yl)isoquinolin-3-yl)cyclopropanecarboxamide], the EC50 is reported as no more than 2000 nM. For `COc1ccc(C2(C(=O)Nc3cc4ccccc4c(N4CCOCC4)n3)CC2)cc1` [Compound 18, 1-(4-methoxyphenyl)-N-(1-morpholinoisoquinolin-3-yl)cyclopropanecarboxamide], the EC50 was no more than 2000 nM. For `CN(C)CCOC(=O)c1cccc(-c2nc(NC(=O)C3(c4ccc5c(c4)OC(F)(F)O5)CC3)cc3ccccc23)c1` [Compound 19, 2-(Dimethylamino)ethyl 3-(3-(1-(2,2-difluorobenzo[d][1,3]dioxol-5-yl)cyclopropanecarboxamido)isoquinolin-1-yl)benzoate], the EC50 was no more than 2000 nM. With `COc1ccc(C2(C(=O)Nc3cc4ccccc4c(N4CCC(c5ccccc5)CC4)n3)CC2)cc1` [Compound 20, 1-(4-methoxyphenyl)-N-(1-(4-phenylpiperidin-1-yl)isoquinolin-3-yl)cyclopropanecarboxamide] the EC50 was no more than 2000 nM. With `COc1ccc(C2(C(=O)Nc3cc4ccccc4c(N4CCNC(=O)C4)n3)CC2)cc1` [Compound 21] the EC50 was no more than 2000 nM. Molecule `NC(=O)c1cccc(-c2nc(NC(=O)C3(c4ccc5c(c4)OC(F)(F)O5)CC3)cc3ccccc23)c1` [Compound 22, 3-(3-(1-(2,2-Difluorobenzo[d][1,3]dioxol-5-yl)cyclopropanecarboxamido)isoquinolin-1-yl)benzamide] has an EC50 of no more than 2000 nM. `COc1ccc(C2(C(=O)Nc3cc4ccccc4c(N4CCCCC4)n3)CC2)cc1` [Compound 23, 1-(4-methoxyphenyl)-N-(1-(piperidin-1-yl)isoquinolin-3-yl)cyclopropanecarboxamide] was tested, and the EC50 was no more than 2000 nM. Work on `CN1CCN(C(=O)c2ccc(-c3nc(NC(=O)C4(c5ccc6c(c5)OC(F)(F)O6)CC4)cc4ccccc34)cc2)CC1` [Compound 24, 1-(2,2-difluorobenzo[d][1,3]dioxol-5-yl)-N-(1-(4-(4-methylpiperazine-1-carbonyl)phenyl)isoquinolin-3-yl)cyclopropanecarboxamide] yielded an EC50 of no more than 2000 nM. With `COc1ccc(-c2nc(NC(=O)C3(c4ccc5c(c4)OC(F)(F)O5)CC3)cc3ccccc23)cn1` [Compound 25, 1-(2,2-Difluorobenzo[d][1,3]dioxol-5-yl)-N-(1-(6-methoxypyridin-3-yl)isoquinolin-3-yl)cyclopropanecarboxamide] the EC50 was no more than 2000 nM. `CNS(=O)(=O)c1ccc(-c2nc(NC(=O)C3(c4ccc5c(c4)OC(F)(F)O5)CC3)cc3ccccc23)c(C)c1` [Compound 26, 1-(2,2-difluorobenzo[d][1,3]dioxol-5-yl)-N-(1-(2-methyl-4-(N-methylsulfamoyl)phenyl)isoquinolin-3-yl)cyclopropanecarboxamide] gave an EC50 of no more than 2000 nM. `O=C(Nc1cc2ccccc2c(-c2ccc(CO)cc2)n1)C1(c2ccc3c(c2)OC(F)(F)O3)CC1` [Compound 27, 1-(2,2-Difluorobenzo[d][1,3]dioxol-5-yl)-N-(1-(4-(hydroxymethyl)phenyl)isoquinolin-3-yl)cyclopropanecarboxamide] showed an EC50 of no more than 2000 nM.
